Measurements from patent US20240043794A1, “Chemically Defined Serum Albumin Substitutes” (Life Technologies Corporation, priority 2020, published 2024).
Where two headings read alike, the source gives them in different places.

Legend:
[1] = test system: Rat cortical neuron (RCN) cells; assay: Rat cortical neuron (RCN) survival in neurobasal medium with ITS; assay type: cell-based; conditions: for RCN cell survival: increasing concentrations, assessed on day 6
From the text: (§1) Trolox (6-hydroxy-2,5,7,8-tetramethylchroman-2-carboxylic acid), a water-soluble derivative of Vitamin E, was investigated as a replacement for albumin. […] Without any anti-oxidant, aged neurons started to degenerate at about day 4, leaving few viable neurons left on the plate.

[2] = test system: rat neuron cells; assay: Rat neuron viability with synthetic peptides replacing albumin; assay type: cell-based; conditions: for rat neuron cell growth: neurobasal medium with ITS, day 5, Calcein AM, FIG. 20; for rat neuron cell viability, HSA supportive properties: culture medium lacking albumin, FIG. 10; for viability of cultured rat neuron cells, HSA-like function: FIG. 11
From the text: Albumins such as HSA have a metal binding site, which functions as a chelator of transition metals that are toxic to neuron cells. Applicants therefore investigated whether HSA may be replaced by a synthetic peptide, which mimics the high affinity binding of the functional metal binding site. […] Peptide B, which is the Peptide C sequence extended by 5 additional flanking HSA residues on either end, was similarly non-functional. […] Without wishing to be bound by scientific theory, the additional amino acid residues may block or otherwise inhibit the chelating functions of the Peptide C sequence.
The importance of Peptide C ionic property and sequence specificity in conferring enhancing properties to cell cultures was investigated. The tetrapeptide DAHK (SEQ ID NO:1) is a sequence comprising negatively, neutral, and two positively charged amino acids (−X++). […] To assess if amino acid sequence or charge specificity confers beneficial properties, a scrambled Peptide C sequence was prepared and tested. The scrambled peptide comprising the sequence AKDH (SEQ ID NO: 3; scramble) and charge of X+−+ was tested, and results are shown in FIG. 11.
To determine the impact of peptide length, Applicants assessed a variety of peptides that varied both in length and in the identity of the amino acid residue(s) that flank the Peptide C DAHK sequence (SEQ ID NO:1). Further, to assess the effect of ionic property, peptides were tested that included amino acid substitutions to the peptide of SEQ ID NO:1. The amino acid substitutions were designed to retain ionic and hydrophobic properties of SEQ ID NO:1, namely by preserving the order of negatively charged, hydrophobic uncharged, and positively charged residues. […] The cultures were further supplemented with rHSA, or a variation of the Peptide C derived synthetic peptide.
In a first set of cell cultures, the synthetic peptides included the DAHK (SEQ ID NO:1) amino acid sequence or peptides with additional residues on one or both the N-terminus and C-terminus of SEQ ID NO:1. On day 5 of culturing, the cells were labeled with Calcein AM and counted. […] That is, the length of adjacent residues on the N-terminus and C-terminus of the peptide is not critical for maintaining the function of peptide C unless the conformation is impacted as so not to maintain its beneficial properties in cell culture.

[3] = test system: rat neurons; assay: Rat neuron viability with low or high GSH or lipoic acid; assay type: cell-based; conditions: low or high concentration, compared to control culture
Protocol: Applicants then tested chemically defined components that may replace the catalase and thiol antioxidant activity of albumins. GSH and lipoic acid were assessed for their ability to provide catalase and thiol antioxidant activity by culturing rat neurons in the presence of either low or high concentrations of GSH or lipoic acid and subsequently assaying cell viability.

[4] = Superoxide Dismutase (SOD) Colorimetric Activity Kit; assay type: biochemical; conditions: range of concentrations
Protocol: Applicants first analyzed the superoxide dismutase (SOD) activity of various albumins, utilizing the Superoxide Dismutase (SOD) Colorimetric Activity Kit (Thermo Fisher Scientific, Waltham, MA), according to the manufacturer's protocol. Briefly, SOD activity was assessed utilizing an assay comprising the reaction of a substrate and Xanthine Oxidase to form superoxide (O^−2), the levels of which are decreased by SOD activity.
Next, the ability of chemically defined components to replace SOD antioxidant activity was tested. Mito-Tempo, which scavenges O2•^− in mitochondria, was compared with HSA for its ability to reduce superoxide, as assessed using the Superoxide Dismutase (SOD) Colorimetric Activity Kit (Thermo Fisher Scientific, Waltham, MA), according to the manufacturer's protocol.

[5] = test system: rat neurons; assay: Calcein AM viability assay of rat neurons in neurobasal medium with ITS
Protocol: (§5) The effect of different BSAs on cell viability was tested using the eBioscience™ Calcein AM Viability Dye, according to manufacturer's protocol. Briefly, rat neurons were cultured in neurobasal medium supplemented with ITS and BSA1 or BSA2 at a concentration of 0.25%.
(§6) The ability of antioxidant to reverse iron-induced toxicity was then investigated. Tocopherol at a concentration of 2 μg/mL in neurobasal medium supplemented with lean supplement (Insulin-Transferrin-Selenium, ITS) was added to cultured rat neuron cells and either BSA1 or BSA2.

[6] = test system: neuronal cell; assay: Interactions between B27 supplement components and albumins, neuronal cell viability; assay type: cell-based; conditions: B27-supplemented media
Protocol: Next, interactions between different components of B27 supplement and various albumins were analyzed (FIGS. 1B-1J). The effect of these molecular interactions were also assessed for their effect on neuronal cell stability in cell culture.

[7] = test system: human neural stem cells (NSC); assay: B-27 supplemented cell culture performance of albumins, human NSC; assay type: cell-based; conditions: B-27 supplemented culture
Protocol: (§2) Commercially available albumins were analyzed for performance in cell cultures. Bovine serum albumin (BSA), human serum albumin (HSA) and recombinant human serum albumin (Rec HSA) from various sources (including different manufacturers, bovine, human, recombinant HSA (made in yeast or rice), and Freestyle CHO MAX media (Thermo Fisher cat. no. K900020) were analyzed. B-27 (Thermo Fisher Scientific cat. no. 17504044) supplemented cell cultures for mouse pluripotent stem cells (PSC), primary rat neurons, or human neural stem cells (NSC) were prepared (approx. 0.5 to 1× final concentration of B27 in medium). The cultures varied only in the source or type of albumin present. Results shown in FIG. 1A illustrate that significant performance differences existed among the albumins tested, and further that performance is dependent on cell type. In fact, two cultures comprising the same cell line and differing only in addition of BSA1 or BSA2 differed in performance.

[8] = test system: FoxG1 expression in pluripotent stem cells (PSC); assay: FoxG1 expression and specification of PSC differentiation, ICC and qPCR; assay type: cell-based, human
Protocol: Peptide C (SEQ ID NO:1) was assessed for its effect on cell differentiation. […] Without wishing to be bound by theory, this was likely due to variations in cholesterol levels within the albumin samples. To assess the effect of the tetrapeptide […] on cell differentiation, pluripotent stem cells (PSC) were cultured in the presence either BSA1, BSA2, or peptide C. […] Results are shown in FIGS. 17A and 17B, respectively. […] Upon differentiation, cells will develop their positional identity such as forebrain, midbrain, hindbrain etc. Specification is the step where PSC develop this positional identification.

[9] = test system: mouse pluripotent stem cells (PSC); assay: B-27 supplemented cell culture performance of albumins, mouse PSC; assay type: cell-based; conditions: B-27 supplemented culture
Protocol: as §2

[10] = test system: rat neuron cells; conditions: 50 μM copper, neurobasal medium with ITS
[11] = test system: HEK293 cells; assay: Copper-stressed HEK293 proliferation, PRESTOBLUE viability; assay type: cell-based; conditions: 50 μM copper, 100 μg/mL or 50 μg/mL peptide
Protocol: (§3) The effect of metals and synthetic peptides were further assessed in mouse embryonic stem cell (mESC) and HEK293 cell proliferation cultures. mESC and HEK293 cultures were spiked with 50 μM copper, thereby creating a toxic culture environment and inhibiting cell proliferation. […] PRESTOBLUE™ cell viability reagent (Thermo Fisher Scientific, Waltham, MA), was used to assess viability according to the manufacturer's protocol.

[12] = test system: mouse embryonic stem cell (mESC); assay: Copper-stressed mESC proliferation, PRESTOBLUE viability; assay type: cell-based; conditions: 50 μM copper, 100 μg/mL or 50 μg/mL peptide
Protocol: as §3

[13] = Lot-to-lot consistency and shelf life of the peptide; assay type: physicochemical; conditions: multiple lots, in solution
[14] = Water solubility; assay type: physicochemical; conditions: compared to Vitamin E
From the text: as §1

[15] = test system: Mouse embryonic stem cells (mESC); assay: mESC proliferation, PrestoBlue assay; assay type: cell-based; conditions: compared to BSA1
Protocol: (§4) BSA1 and BSA2 were further analyzed for their effect on stem cells. Mouse embryonic stem cells (mESC) or human neural stem cells (hNSC) were grown in cell culture media containing BSA1 or BSA2, and proliferation was measured. Proliferation of mESCs was measured using PrestoBlue assay (Thermo Fisher Scientific) according to the manufacturer's protocol. Proliferation of hNSCs was measured with VI-CELL™ XR cell counting assay (Beckman Coulter) according to the manufacturer's protocol.

[16] = test system: human neural stem cells (hNSC); assay: hNSC proliferation, VI-CELL XR cell counting assay; assay type: cell-based; conditions: compared to BSA1
Protocol: as §4

[17] = test system: rat neurons
Protocol: as §5, §6

Compound: Vitamin E
- RCN cell survival [1]: reversed cell death

Compound: RRDAHK [SEQ ID NO:12]
- rat neuron cell growth [2]: convey beneficial properties to cell culture

Compound: O=C(O)CCCC[C@@H]1CCSS1 (racemic) [Lipoic acid, lipoic acid]
- rat neuron cell viability [3]: enhanced rat neuron cell viability

Compound: FRRDAHKSEVA [SEQ ID NO:17]
- rat neuron cell growth [2]: convey beneficial properties to cell culture

Compound: CC1(C)CC(NC(=O)C[P+](c2ccccc2)(c2ccccc2)c2ccccc2)CC(C)(C)N1[O] [Mito-Tempo, (2-(2,2,6,6-tetramethylpiperidin-1-oxyl-4-ylamino)-2-oxoethyl)triphenylphosphonium chloride]
- superoxide levels [4]: decrease superoxide levels in a dose-dependent manner

Compound: N[C@@H](CCC(=O)N[C@@H](CS)C(=O)NCC(=O)O)C(=O)O [GSH, glutathione]
- rat neuron cell viability [3]: neither concentration of GSH tested showed significant effects on cell viability

Compound: SAYSRGVFRRDAHKSEVAHRFKD [peptide A]
- rat neuron cell viability, HSA supportive properties [2]: did not retain HSA supportive properties

Compound: Tocopherol [reference compound]
- reversal of decreased viability due to BSA1 or iron ([5]; 2 μg/mL): reversed decreased viability of the rat neuron cells
- effect on neuronal cell viability of B27 component interacting with BSA and HSA [6]: positive effects on neuronal cell viability

Compound: BSA1: BSA source with higher iron content; fatty acid free
- cell culture performance [7]: supportive properties
- specification of PSC differentiation [8]: specification of PSC differentiation was impacted
- rat neuron viability ([5]; albumin at 0.25%, compared to BSA2): reduced viability of rat neurons
- cell culture performance [9]: supportive properties

Compound: CC(=O)Oc1c(C)c(C)c2c(c1C)CCC(C)(CCC[C@H](C)CCC[C@H](C)CCCC(C)C)O2 (stereo partly drawn) [X2, Tocopherol acetate]
- effect on neuronal cell viability of B27 component interacting with BSA and HSA [6]: positive effects on neuronal cell viability

Compound: RRDAHKSE [SEQ ID NO:15]
- rat neuron cell growth [2]: convey beneficial properties to cell culture

Compound: GVFRRDAHKSEVAH [Peptide B]
- rat neuron cell viability, HSA supportive properties [2]: non-functional

Compound: AKDH [reference compound]
- viability of cultured rat neuron cells, HSA-like function [2]: the HSA-like function was abolished

Compound: DAHK [Peptide C]
- prevention of copper induced toxicity [10]: prevented toxicity even in the presence of copper
- specification of PSC differentiation [8]: no significant impact
- rescue of copper stressed cells [11]: to a lesser extent
- rescue of copper stressed cells [12]: rescued the stressed cells in a concentration dependent manner
- viability of cultured rat neuron cells, HSA-like function [2]: functional in improving viability of cultured rat neuron cells
- rat neuron cell viability, HSA supportive properties [2]: enhanced rat neuron cell viability
- lot-to-lot consistency and shelf life [13]: lot-to-lot consistency and good shelf life, even in solution

Compound: Cc1c(C)c2c(c(C)c1O)CCC(C)(C(=O)O)O2 (stereo not drawn) [Trolox, 6-hydroxy-2,5,7,8-tetramethylchroman-2-carboxylic acid]
- working range ([1]; compared to Vitamin E): wider working range than Vitamin E
- RCN cell survival [1]: reversed cell death
- water solubility [14]: higher water solubility

Compound: RRDAHKS [SEQ ID NO:13]
- rat neuron cell growth [2]: convey beneficial properties to cell culture

Compound: FRRDAHKSEV [SEQ ID NO:16]
- rat neuron cell growth [2]: convey beneficial properties to cell culture

Compound: DTHK [counterpart BSA peptide]
- viability of cultured rat neuron cells, HSA-like function [2]: functional in improving viability of cultured rat neuron cells

Compound: BSA2: BSA from a second source; fatty acid rich
- cell culture performance [7]: caused toxicity
- specification of PSC differentiation [8]: specification of PSC differentiation was impacted
- proliferation of mESC [15]: reduces proliferation
- proliferation of hNSC [16]: reduces proliferation
- cell culture performance [9]: caused toxicity

Compound: [Fe] [iron]
- rat neuron viability [17]: rat neuron viability was decreased
